In patent US9187458B2, “Cyanoquinoline derivatives” (Tianjin Hemay Bio-Tech Co., LTD., priority 2010, dated 2015):

Columns and labels:
[1] = test system: A431 cells; assay: A431 Cell Growth Inhibition Test (MTT Assay); assay type: cell-based, human; conditions: Homo sapiens, A-431, 68 h, compound 1 μM, 68 h incubation, read-out: Growth Inhibition Ratio (%)
Procedure: A431 Cell Growth Inhibition Test (MTT Assay)
1. Cell strains: A431 (human epithelial […] cell strains);
Culture medium: 45% DMEM, 45% F12+10% FBS;
1. A plate (10 cm) of cells in logarithmic growth phase normally cultured was collected;
2. The culture solution was sucked out. The plate was washed with 5 ml of PBS 1-2 times;
3. PBS was sucked out, and 2 ml of 0.25% pancreatin was added to infiltrate the cells for 1 min;
4. The pancreatin was sucked out, and the culture plate was placed in an incubator. Digestion was carried out for about 15 min at 37° C.;
5. 4 ml of complete culture solution was added in the culture plate to stop the digestion. The cells were carefully scoured with micropipette (1 ml) to give a uniform cell suspension. The suspension was implanted into a 96-well cell culture plate by 2500 cells/100 μl per well. The culture plate was incubated overnight under 5% CO2 at 37° C. In day 2, 100 μl of culture solution comprising the compound was added in each well, and further incubated for 68 h under 5% CO2 at 37° C.
6. The culture solution was sucked out;
7. 100 μl of serum-free culture solution containing 0.5 mg/ml MTT was added in each well, and incubated for 4 h;
8. The culture solution was carefully sucked out;
9. 100 μl of DMSO was added into each well and vibrated to dissolve;
10. OD values were determined at 490 nM.
(§1) 1. Calculation of Relative Inhibition Ratio The inhibition ratio of a compound on cell growth=(PC−n)/(PC−NC)×100%
IC50: concentration of a compound where inhibition ratio was 50%. IC50 values were fitted with Origin7.5.

[2] = test system: BT-474 cells; assay: BT-474 Cell Growth Inhibition Test (SRB Assay); assay type: cell-based, human; conditions: Homo sapiens, 70 h incubation; for inhibition at 1 µM: BT-474, 70 h, compound 1 μM, read-out: Growth Inhibition Ratio (%)
Procedure: BT-474 Cell Growth Inhibition Test (SRB Assay)
1. Cell strains: BT-474 (human breast tumor cell strains);
2. SRB: available from Sigmaaldrich, goods number: S9012, lot number: 047K3751. SRB was reserved at the room temperature. 0.4% (w/v) of working solution was formulated with 1% of glacial acetic acid. The solution was reserved at the temperature of 4° C.; anti-tumor compounds; DMSO.
Culture medium (90% EMEM+10% FBS+0.1 mM NEAA, reserved at 4° C.);
1. A plate (10 cm) of cells in logarithmic growth phase normally cultured was collected. The culture solution was sucked out. The plate was washed with 5 mL of PBS 1-2 times;
2. PBS was sucked out, and […] of 0.25% pancreatin was added to infiltrate the cells for 30 s;
3. The pancreatin was sucked out. The culture plate was pleaced in an incubator. Digestion was carried out for about 5 min at 37° C.;
4. 3 mL of complete culture solution was added to the culture plate to stop the digestion. The cells were carefully scoured with micropipette (1 ml) to give a uniform single cell suspension;
5. Cell suspension was counted. The suspension was diluted to 1×10^5/ml. The resulting suspension was developed uniformly on a plate. The plate was incubated under 5% CO2 at 37° C. overnight. In day 2, 80 μL of complete culture medium was added in each well and then 20 μL of culture solution comprising a compound was added. The mixture was incubated for 70 h under 5% CO2 at 37° C.
6. The culture solution was sucked out. 100 uL of TCA fixed cells which were diluted to 10% were added to each well. The plate was kept in a refrigerator for 1 h at 4° C.
7. TCA stationary liquid was sucked out. Each well was washed with 150 μL of ddH2O five times;
8. After the stationary liquid was cleansed, the plate was dried in the air at the room temperature;
9. 60 μL of SRB staining solution was added in each well. The well was stained for 15 min at the room temperature;
10. The SRB staining solution was sucked out. Each well was washed with 150 μL of 1% glacial acetic acid five times;
11. After the SRB staining solution was cleansed, the plate was dried in the air at the room temperature;
12. 100 μL of 10 mM Tris was added in each well. The plate was vibrated to dissolve out SRB;
13. OD values were determined at 570 nM.
as §1
IC50: Concentration of a compound where inhibition ratio was 50%. IC50 values were fitted with Origin7.5.

Row | IC50 [2] | Structure (SMILES) | inhibition at 1 µM [1] | inhibition at 1 µM [2]
1 | – | N#Cc1cnc2cc(O[C@H]3CCOC3)c(NC(=O)/C=C/CN3CCCCC3)cc2c1Nc1ccc(OCc2ccccn2)c(Cl)c1 [Example 185, (S,E/Z)-N-(4-(3-CHLORO-4-(PYRIDIN-2-YL-METHOXY)PHENYLAMINO)-3-CYANO-7-(TETRAHYDROFURAN-3-YL-OXY)QUINOLIN-6-YL)-4-(PIPERIDIN-1-YL)-BUT-2-ENAMIDE] | 70% | –
2 | – | CN(C)C/C=C/C(=O)Nc1cc2c(Nc3ccc(F)c(Cl)c3)c(C#N)cnc2cc1OC1CCOC1 (mixture of isomers) [Example 176, (E/Z)-N-(4-(3-CHLORO-4-FLUOROPHENYLAMINO)-3-CYANO-7-(TETRAHYDROFURAN-3-YL-OXY)QUINOLIN-6-YL)-4-(DIMETHYLAMINO)-BUT-2-ENAMIDE] | 79% | 89%
3 | – | Cc1ccc(COc2ccc(Nc3c(C#N)cnc4cc(O[C@H]5CCOC5)c(NC(=O)/C=C/CN(C)C)cc34)cc2Cl)cc1 [Example 167, (S,E)-N-(4-(4-(4-METHYLBENZYLOXY)-3-CHLOROPHENYLAMINO)-3-CYANO-7-(TETRAHYDROFURAN-3-YL-OXY)QUINOLIN-6-YL)-4-(DIMETHYLAMINO)-BUT-2-ENAMIDE] | 75% | 75%
4 | – | CN(C)C/C=C/C(=O)Nc1cc2c(Nc3ccc(OCc4ccccc4)cc3)c(C#N)cnc2cc1O[C@H]1CCOC1 [Example 155, (S,E)-N-(4-(4-(BENZYLOXY)PHENYLAMINO)-3-CYANO-7-(TETRAHYDROFURAN-3-YL-OXY)QUINOLIN-6-YL)-4-(DIMETHYLAMINO)-BUT-2-ENAMIDE] | 82% | –
5 | – | CN(C)C/C=C/C(=O)Nc1cc2c(Nc3ccc(OCc4cccc(F)c4)c(Cl)c3)c(C#N)cnc2cc1OC1CCOC1 (mixture of isomers) [Example 180, (E/Z)-N-(4-(4-(3-FLUOROBENZYLOXY)-3-CHLOROPHENYLAMINO)-3-CYANO-7-(TETRAHYDROFURAN-3-YL-OXY)QUINOLIN-6-YL)-4-(DIMETHYLAMINO)-BUT-2-ENAMIDE] | 73% | 78%
6 | 267 nM | C#Cc1cccc(Nc2c(C#N)cnc3cc(O[C@H]4CCOC4)c(NC(=O)/C=C/CN(C)CCO)cc23)c1 [Example 190, (S,E)-N-(3-CYANO-4-(3-ETHYNYLPHENYLAMINO)-7-(TETRAHYDROFURAN-3-YL-OXY)QUINOLIN-6-YL)-4-(N-METHYLETHANOLAMINO)-BUT-2-ENAMIDE] | 79% | –
7 | – | CN(C)C/C=C/C(=O)Nc1cc2c(Nc3ccc(OCc4ccccc4F)c(Cl)c3)c(C#N)cnc2cc1O[C@H]1CCOC1 [Example 157, (S,E)-N-(4-(4-(2-FLUOROBENZYLOXY)-3-CHLOROPHENYLAMINO)-3-CYANO-7-(TETRAHYDROFURAN-3-YL-OXY)QUINOLIN-6-YL)-4-(DIMETHYLAMINO)-BUT-2-ENAMIDE] | 72% | –
8 | – | Cc1ccccc1COc1ccc(Nc2c(C#N)cnc3cc(O[C@H]4CCOC4)c(NC(=O)/C=C/CN(C)C)cc23)cc1Cl [Example 166, (S,E)-N-(4-(4-(2-METHYLBENZYLOXY)-3-CHLOROPHENYLAMINO)-3-CYANO-7-(TETRAHYDROFURAN-3-YL-OXY)QUINOLIN-6-YL)-4-(DIMETHYLAMINO)-BUT-2-ENAMIDE] | 69% | 69%
9 | – | COCCN(C)C/C=C/C(=O)Nc1cc2c(Nc3ccc(OCc4ccccn4)c(Cl)c3)c(C#N)cnc2cc1O[C@H]1CCOC1 [Example 201, (S,E)-N-(3-CYANO-4-(3-CHLORO-4-(PYRIDIN-2-YL-METHOXY)PHENYLAMINO)-7-(TETRAHYDROFURAN-3-YL-OXY)QUINOLIN-6-YL)-4-(N-METHYLMETHOXY ETHYLAMINO)-BUT-2-ENAMIDE] | – | 80%
10 | – | CN(C/C=C/C(=O)Nc1cc2c(Nc3ccc(OCc4cccc(F)c4)c(Cl)c3)c(C#N)cnc2cc1O[C@H]1CCOC1)CCO [Example 198, (S,E)-N-(3-CYANO-4-(4-(3-FLUOROBENZYLOXY)-3-CHLOROPHENYLAMINO)-7-(TETRAHYDROFURAN-3-YL-OXY)QUINOLIN-6-YL)-4-(N-METHYLETHANOLAMINO)-BUT-2-ENAMIDE] | – | 78%
11 | – | C#Cc1cccc(Nc2c(C#N)cnc3cc(OC4CCOC4)c(NC(=O)/C=C/CN(C)C)cc23)c1 (mixture of isomers) [Example 177, (E/Z)-N-(3-CYANO-4-(3-ETHYNYLPHENYLAMINO)-7-(TETRAHYDROFURAN-3-YL-OXY)QUINOLIN-6-YL)-4-(DIMETHYLAMINO)-BUT-2-ENAMIDE] | 81% | 87%
12 | – | CCN(CC)C/C=C/C(=O)Nc1cc2c(Nc3ccc(F)c(Cl)c3)c(C#N)cnc2cc1O[C@H]1CCOC1 [Example 168, (S,E)-N-(4-(3-CHLORO-4-FLUOROPHENYLAMINO)-3-CYANO-7-(TETRAHYDROFURAN-3-YL-OXY)QUINOLIN-6-YL)-4-(DIETHYLAMINO)-BUT-2-ENAMIDE] | – | 86%
13 | – | N#Cc1cnc2cc(O[C@H]3CCOC3)c(NC(=O)/C=C/CNCCCCCCO)cc2c1Nc1ccc(F)c(Cl)c1 [Example 205, (S,E)-N-(3-CYANO-4-(3-CHLORO-4-FLUORO-PHENYLAMINO)-7-(TETRAHYDROFURAN-3-YL-OXY)QUINOLIN-6-YL)-4-(6-HYDROXYHEXYLAMINO)-BUT-2-ENAMIDE] | – | 75%
14 | – | N#Cc1cnc2cc(O[C@H]3CCOC3)c(NC(=O)/C=C/CN3CCOCC3)cc2c1Nc1ccc(OCc2cccc(F)c2)c(Cl)c1 [Example 173, (S,E)-N-(4-(4-(3-FLUOROBENZYLOXY)-3-CHLOROPHENYLAMINO)-3-CYANO-7-(TETRAHYDROFURAN-3-YL-OXY)QUINOLIN-6-YL)-4-(MORPHOLIN-4-YL)-BUT-2-ENAMIDE] | – | 67%
